Data from patent US12215460B2, “Methods of microbial control” (Clean Chemistry, Inc., priority 2015, dated 2025).
Read-outs that look alike come from different tables or passages of the source.

Tests used:
[1] = Bleaching of Kraft pulp, hand sheet tests
[2] = TOX formation tests in pulp bleaching
Protocol: […]. The pulp slurry was put into a 1 L glass beaker in a heated water bath. The beakers were fitted with liquid-tight covers to minimize evaporative losses of water and oxidants. After the pulp slurry was heated the oxidant solution and additional salt water was added to make a final composition of about 855 g water, 45.0 g of air-dry pulp, 8.55 g NaCl and the oxidant. The oxidant was mixed into the pulp slurry thoroughly with a stainless steel spatula for several minutes and then mixed periodically throughout the 2 hour bleaching period. The pH of the slurry was left at the natural pH created by each oxidant in the presence of the pulp.
The amount of oxidant used in each test was enough to partially bleach the amount of lignin present so that the oxidant was the limiting reagent. When peracetate oxidant was combined with Kraft pulp the evolution of some gas was observed accompanied by rapid bleaching that was clearly visible within the first few minutes. […]. After 2 hours at 50° C. the pulp slurries were vacuum filtered through a Buchner funnel over a medium porosity filter paper. There was no residual oxidant present in the filtrates. The four filtrate solutions recovered were put into amber glass bottles and preserved with sulfuric acid for total organic halide analyses, which were conducted by a third party laboratory.

microbes = test: Microbial control in water at slightly alkaline pH, oxidant comparison; assay type: cell-based
Source text: In some embodiments, microbial control in water at slightly alkaline pH was compared between peracetate oxidant, […] bleach, peracetic acid and […] dioxide. Alkaline pH is encountered in a variety of applications where microbial control and sanitization is needed, including pulp and paper processing, cooling towers, water treatment and chill tanks in poultry processing. […].

ORP of oxidants at pH 7 = assay type: physicochemical; settings: 29 mM
[3] = Thermal activation in clean water at pH 8.5 and 50 C; assay type: physicochemical; settings: distilled water
[4] = flowback water, 22 C, pH 6.5; initial 80 mg/L (peracetate as PAA; PAA with 112 mg/L H2O2)
[5] = Entry 2, bleach time 30 min, 1.13 g/L PAA equiv., initial pH 8.2
[6] = Entry 8, 30 min, 4.0 g/L, initial pH 8.0
[7] = Entry 9, 30 min, 4.0 g/L, initial pH 8.9

In the case of `[O][Cl+][O-]` [chlorine dioxide], the “Final ORP” value [1, 5] is reported as 896 mV vs SHE, the “Final pH” value [1, 5] is reported as 6.4 and the “Normalized TOX” value [2] is reported as 17.7 mg/L per 1000 mg/L oxidant. For the same compound, the TOX [2] was 17.7 mg/L and the “performance as antimicrobial disinfectant” value (microbes) was “performed well”.
With `OO` [hydrogen peroxide] the ORP (ORP of oxidants at pH 7) was “about 0.5 V (vs SHE)”.
For `OCl` [hypochlorous acid], the ORP (ORP of oxidants at pH 7) was “over 1.1 V (vs SHE)”.
With `CC(=O)OO` [peracetic acid] the “Final ORP” value ([1]; Entry 7, 30 min, 4.0 g/L, initial pH 7.0) was 502 mV vs SHE, the “Final pH” value ([1]; Entry 7, 30 min, 4.0 g/L, initial pH 7.0, stock 11.4% PAA and 15.6% H2O2) was 7.0 and the “Final ORP” value [1, 6] was 406 mV vs SHE. For the same compound, the “Final pH” value [1, 6] was 8.0, the “Final ORP” value [1, 7] was 253 mV vs SHE and the “Final pH” value [1, 7] was 8.8. The “Normalized TOX” value ([2]; Kraft pulp 5% consistency, 1.0% NaCl, 50 C, 2 hours) was 4.5 mg/L per 1000 mg/L oxidant, the TOX ([2]; Kraft pulp 5% consistency, 1.0% NaCl, 50 C, 2 hours, initial 4000 mg/L peracetate (as PAA equivalents), 4000 PAA + 5400 H2O2, 1000 ClO2, blank 0.68) was 17.8 mg/L and the “time peracetic acid and hydrogen peroxide concentrations were stable” value [3] was “about 90 minutes”. The ORP ([3]; constant during the test) was “around 280 mV vs SHE”, the “performance as antimicrobial disinfectant” value (microbes) was “lowest performance” and the TOX [4] was “BDL (BDL = below detection limit, less than 0.05 mg/L)”.
For sodium peracetate [peracetate oxidant], the “total organic halides (TOX) relative to chlorine dioxide” value [2] was “about ten times less”.
